Assay results taken from US20150133436A1, “Bromodomain Inhibitors For Treating Autoimmune And Inflammatory Diseases” (GlaxoSmithKline LLC, priority 2009, published 2015).

Key:
[1] = test system: TNFα; test: Lipopolysaccharide (LPS) stimulated whole blood measuring TNFα levels assay; assay type: cell-based; conditions: LPS 200 ng/ml, 24 hours, read-out: pIC50, TNFα levels in LPS stimulated whole blood (converted)
Experimental: Activation of monocytic cells by agonists of toll-like receptors such as bacterial lipopolysaccharide (LPS) results in production of key inflammatory mediators including TNFα. Such pathways are widely considered to be central to the pathophysiology of a range of auto-immune and inflammatory disorders.
After further incubation for 24 hours at 37 degrees, 140 ul of PBS are added to each well. The plates are sealed, shaken for 10 minutes and then centrifuged (2500 rpm×10 min). 100 ul of the supernatant are removed and TNFα levels assayed by immunoassay (typically by MesoScale Discovery technology) either immediately or following storage at −20 degrees. Dose response curves for each compound was generated from the data and an IC50 value was calculated.

[2] = test system: Balb/c male mice given a lethal dose of LPS; test: In vivo mouse endotoxemia model; conditions: 15 mg/kg LPS i.p., compound 10 mg/kg intravenously ninety minutes later; for Numbers of animals surviving at 4 days (summed across multiple repeat experiments): survivors/total
Excerpt: High doses of Endotoxin (bacterial lipopolysaccharide) administered to animals produce a profound shock syndrome including a strong inflammatory response, dysregulation of cardiovascular function, organ failure and ultimately mortality. This pattern of response is very similar to human sepsis and septic shock, where the body's response to a significant bacterial infection can be similarly life threatening.
To test the compounds for use in the invention groups of eight Balb/c male mice were given a lethal dose of 15 mg/kg LPS by intraperitoneal injection. Ninety minutes later, animals were dosed intravenously with vehicle (20% cyclodextrin 1% ethanol in apyrogen water) or compound (10 mg/kg). The survival of animals was monitored at 4 days.

| Compound | IC50 [1] | Animals surviving at 4 days, percent [2] | Numbers of animals surviving at 4 days (summed across multiple repeat experiments) [2] | melting point |
| --- | --- | --- | --- | --- |
| COc1cc2c(cc1-c1c(C)noc1C)ncc1nc(C3CCOCC3)n([C@H](C)c3ccccc3)c12 [Example 4, 7-(3,5-dimethyl-4-isoxazolyl)-8-(methoxy)-1-[(1R)-1-phenylethyl]-2-(tetrahydro-2H-pyran-4-yl)-1H-imidazo[4,5-c]quinoline] | ≤ 1 µM | (38%) | 9/24 |  |
| Cc1nnc2c(NC(N)=O)cc3cc(-c4ccc(CN5CCCCC5)cc4)ccc3n12 [Example 6, N-{1-methyl-7-[4-(1-piperidinylmethyl)phenyl][1,2,4]triazolo[4,3-a]quinolin-4-yl}urea] | ≤ 1 µM |  |  | > 260 °C |
| COc1cc2c(cc1-c1c(C)noc1C)ncc1[nH]c(=O)n([C@H](C)c3ccccn3)c12 [Example 3, 7-(3,5-dimethyl-4-isoxazolyl)-8-(methoxy)-1-[(1R)-1-(2-pyridinyl)ethyl]-1,3-dihydro-2H-imidazo[4,5-c]quinolin-2-one] | ≤ 1 µM | (83%) | 55/66 |  |
| CNCc1ccc(-c2ccc3c(c2)[C@H](NC(=O)OC(C)C)C[C@H](C)N3C(C)=O)cc1 [Example 1, 1-methylethyl ((2S,4R)-1-acetyl-2-methyl-6-{4-[(methylamino)methyl]phenyl}-1,2,3,4-tetrahydro-4-quinolinyl)carbamate] | ≤ 1 µM |  |  |  |
| CC(=O)N1c2ccc(-c3ccc(C(=O)O)cc3)cc2[C@H](Nc2ccc(Cl)cc2)C[C@@H]1C [Example 5, 4-{(2S,4R)-1-acetyl-4-[(4-chlorophenyl)amino]-2-methyl-1,2,3,4-tetrahydro-6-quinolinyl}benzoic acid] | ≤ 1 µM | (58%) | 14/24 |  |
